{"source": "patent US20060148712A1", "about": "“Monocyte chemoattractant activity of galectin-3” (priority 2000, published 2006)", "key": {"[1]": {"system": "human monocytes", "assay": "Measurement of Ca2+ influx in monocytes (Indo-1 AM)", "assay_type": "cell-based", "settings": "for Induction of Ca2+ influx in human monocytes by chemokine: 100 ng/ml", "description": "Intracellular concentrations of Ca^2+ were measured by using Indo-1 AM according to a previously described method (Lopez, et al., Cytometry 10:165-73 (1989)). Purified monocytes were resuspended in HBSS containing 1 mM Ca^2+, 1 mM Mg^2+, and 5% autologous serum, and incubated with […] Indo-1 AM for 45 min at 37° C. The cells were washed once, resuspended in the same buffer, and stimuli and inhibitors were added at the time points specified in the Figure Legends. Intracellular Ca^2+ concentration was measured by monitoring light emission at 405 and 485 nm to an excitation wavelength of 355 nm, using an AMINCO-Bowman series 2 luminescence spectrometer (Rochester, N.Y.)."}, "[2]": {"system": "human peripheral blood monocytes", "assay": "Monocyte migration assay in vitro (96-well micro Boyden chamber)", "assay_type": "cell-based", "settings": "for inhibition at 10000 µM: Homo sapiens, Monocyte, 10 mM lactose, read-out: Inhibition of galectin-3-induced monocyte migration", "from_the_text": "Human monocytes were purified from venous blood of normal volunteers essentially as described previously (Nakagawara, et al., J. Clin. Invest. 68:1243-53 (1981)). In brief, after erythrocytes were sedimented by addition of 6% dextran saline solution (I part to 5 parts heparinized blood), the leukocytes were collected, washed twice, and resuspended in Ca^2+ and Mg^2+-free HBSS containing 5% autologous serum. Mononuclear cells were acquired by centrifugation of the leukocyte suspension on Ficoll Paque at 1,500 rpm for 15 min. The cells were resuspended in RPMI 1640 containing 10% autologous serum and allowed to adhere to sterile tissue culture plates for 30 min in a humidified incubator at 5% CO2 and 37° C. After incubation, non-adherent cells were removed by washing the plates three times with PBS at 37° C. […] To detach and harvest the adhered monocytes, 1 mM EDTA-PBS containing 5% serum was added and the plates were incubated on ice for 30 min. The monocytes were washed twice with HBSS and resuspended in RPMI 1640 with 0.1% autologous serum for the migration assay. The viability of monocytes was determined by trypan blue exclusion and was more than 98%. In some experiments, monocytes were purified according to another method using a Percoll discontinuous gradient described previously (Chuluyan & Issekutz, J. Clin. Invest. 92:2768-77 (1993)).\n(§1) Monocyte migration was examined by using 96-well micro Boyden chambers with 5 μm-pore size filters (Neuro Probe, Inc., Gaithersburg, Md.) as described previously (Falk, et al., J. Immunol. Meth. 33:239-47 (1980)), Chertov, et al., J. Biol. Chem. 271:2935-40 (1996)). Briefly, after the indicated concentrations of galectin-3 in RPMI 1640 were applied to the lower chambers, purified monocyte suspensions (2.5-5.0×10^4/well) were applied to the upper chambers. After incubation of the chambers for 1 h in a humidified incubator at 5% CO2 and 37° C., the filters were washed once with PBS and processed with Wright stain. The number of monocytes on the bottom side of the filters was counted in 5 to 10 high-power fields. Monocyte migration was calculated from the average numbers of the counted cells and expressed as % of input cells in a well.\nIn assays using inhibitory reagents, the purified monocytes were pretreated with or without the indicated concentrations of B2C10 (Liu, et al., Biochemistry 35:[…] (1996)) or anti-DNP IgG1 (Liu, et al., J. Immunol. 124:2728-31 (1980)) as an isotype-matched control mAb, galectin-3C, or PTX at 37° C. for 30 min. Then the cells were applied to the upper chambers in the presence of these inhibitors at the same concentrations used in the pretreatment. In the assays using lactose and sucrose, the sugars were added to the lower chambers at the initiation of the migration assay."}, "[3]": {"system": "cultured human peripheral blood macrophages", "assay": "Migration of cultured human peripheral blood macrophages in vitro", "assay_type": "cell-based", "settings": "confirmed by applicant (FIG. 9)", "from_the_text": "(§2) Human macrophages were obtained by culturing peripheral blood monocytes in vitro for 7 days as previously described (Fantuzzi, et al., Blood 94:875-83 (1999)). Human alveolar macrophages were obtained from bronchoalveolar lavage (BAL) fluid according to a previously described protocol (Sugimoto et al, Am. Rev. Respir. Dis. 139:1329-35 (1989)). The purity of the macrophages was over 90% and the viability was over 99%.\nas §1"}, "[4]": {"system": "human alveolar macrophages", "assay": "Migration of human alveolar macrophages in vitro", "assay_type": "cell-based", "from_the_text": "as §2, §1"}, "[5]": {"system": "monocytes", "assay_type": "cell-based, human", "settings": "1 μg/ml of PTX; data not shown", "description": "The possibility that G-proteins might be involved in galectin-3-induced monocyte migration was tested using the inhibitor pertussis toxin (PTX), because it is well known that many chemoattractants, including all chemokines, utilize G-protein-coupled receptors to transduce signals into the cell (Baggiolini, Nature 392:565-68 (1998))."}}, "note": "Like-named read-outs stand apart in the source and are kept apart here."}
{"molecule": "OC[C@H]1O[C@@H](O[C@H]2[C@H](O)[C@@H](O)C(O)O[C@@H]2CO)[C@H](O)[C@@H](O)[C@H]1O", "note": "(some centres unmarked) [lactose, reference compound]", "values": [{"measurement": "Inhibition of MCP-1-induced Ca2+ influx", "setting": "[1]; 5 mM lactose, 100 ng/ml MCP-1", "result": "not"}, {"measurement": "Inhibition of galectin-3-induced Ca2+ influx", "setting": "[1]; 5 mM lactose, 1 μM galectin-3", "result": "complete inhibition"}, {"measurement": "Effect on monocyte migration induced by MCP-1", "setting": "[2]; 5 mM and 10 mM lactose", "result": "did not affect"}, {"measurement": "Decrease of galectin-3-induced monocyte migration", "setting": "[2]; 5 mM lactose, 10 nM galectin-3, p<0.05, n=3", "result": 63.8, "unit": "%"}, {"measurement": "Decrease of galectin-3-induced monocyte migration", "setting": "[2]; 5 mM lactose, 100 nM galectin-3, p<0.05, n=3", "result": 71.5, "unit": "%"}, {"measurement": "Decrease of galectin-3-induced monocyte migration", "setting": "[2]; 5 mM lactose, 1 μM galectin-3, p<0.05, n=3", "result": 57.6, "unit": "%"}, {"measurement": "inhibition at 10000 µM", "setting": "[2]; 10 nM galectin-3, p<0.05, n=3", "result": 78, "unit": "%"}, {"measurement": "inhibition at 10000 µM", "setting": "[2]; 100 nM galectin-3, p<0.05, n=3", "result": 74.1, "unit": "%"}, {"measurement": "inhibition at 10000 µM", "setting": "[2]; 1 μM galectin-3, p<0.05, n=3", "result": 71.1, "unit": "%"}]}
{"molecule": "OC[C@H]1O[C@@](CO)(O[C@H]2O[C@H](CO)[C@@H](O)[C@H](O)[C@H]2O)[C@@H](O)[C@@H]1O", "note": "[sucrose, reference compound]", "values": [{"measurement": "Inhibition of galectin-3-induced Ca2+ influx", "setting": "[1]; 5 mM sucrose, 1 μM galectin-3", "result": "not"}, {"measurement": "Effect on galectin-3-induced monocyte migration", "setting": "[2]; sucrose 5 mM or 10 mM, negative control sugar", "result": "no significant effect"}]}
{"molecule": "MCP-1: human recombinant MCP-1, a strong chemoattractant for monocytes (Pepro Tech)", "values": [{"measurement": "Response of cultured human macrophages to MCP-1", "setting": "[3]", "result": "do not respond"}, {"measurement": "Effect on alveolar macrophage migration", "setting": "[4]; FIG. 10, exp. 1", "result": "no effect"}, {"measurement": "Effect on alveolar macrophage migration", "setting": "[4]; FIG. 10, exp. 2", "result": "negligible effect"}, {"measurement": "Induction of Ca2+ influx in human monocytes by chemokine", "setting": "[1]", "result": "induced a Ca^2+ influx"}, {"measurement": "Concentration that induced maximum monocyte migration", "setting": "[2]; dose-response experiments, also printed as 11.6 nM", "result": 100, "unit": "ng/mL"}]}
{"molecule": "SDF-1α", "values": [{"measurement": "Induction of Ca2+ influx in human monocytes by chemokine", "setting": "[1]", "result": "induced a Ca^2+ influx"}]}
{"molecule": "pertussis toxin [PTX, reference compound]", "values": [{"measurement": "Viability of monocytes", "setting": "[5]", "result": "did not decrease the viability"}, {"measurement": "Effect of PTX on MCP-1-induced Ca2+ influx", "setting": "[1]; 1 μg/ml of PTX, 100 ng/ml MCP-1", "result": "blocked"}, {"measurement": "Effect of PTX on galectin-3-induced Ca2+ influx", "setting": "[1]; 1 μg/ml of PTX, 1 μM galectin-3", "result": "blocked"}, {"measurement": "Inhibition of MCP-1-induced monocyte migration", "setting": "[2]; 1 μg/ml of PTX, all MCP-1 concentrations examined", "result": "significantly inhibited"}, {"measurement": "Decrease of galectin-3-induced monocyte migration", "setting": "[2]; PTX, 1 μM galectin-3, p<0.01, n=5", "result": 91.2, "unit": "%"}, {"measurement": "Inhibition of galectin-3-induced monocyte migration", "setting": "[2]; PTX, 10 or 100 nM galectin-3, p=0.8501 and 0.3093, n=5", "result": "did not significantly inhibit"}]}
